Data set [1] deals with collagen-induced arthritis. Details: method as in PMID 17537677. The settings on record: rodents; cited from earlier work.
The test system of data set [2] is experimental nephrotoxic nephritis. The arrangement: method as in PMID 19959716. The conditions noted are these: rats; cited from earlier work.
Data set [3] is described as follows: Pharmacokinetic study of tamatinib in rats after oral fostamatinib (UPLC-MS/MS of plasma). It counts as in vivo, Wistar male rats. As for the experimental part:
The analysis was performed on Waters® Acquity H-Class UPLC® tandem triple quadrupole mass spectrometer (TQD) (Waters, Milford, USA). The H-Class UPLC® system contained Acquity sample manager and Acquity quaternary solvent manager. TQD was equipped with electrospray ionization (ESI) probe. Samples were detected and quantified in multiple reaction monitoring (MRM) mode. […] Mobile phase composition was 10 mM ammonium acetate and acetonitrile (10:90). The mobile phase was adjusted at 0.25 mL/min. […] Samples were vortex-mixed for 30 s, and 1 mL of MTBE was added. All samples were vortex-mixed for 1 min, then centrifuged at 8 °C for 10 min at 4500 g. After centrifugation, the upper layer was transferred to 2 mL tubes and dried using a vacuum concentrator at 40 °C. The residue was reconstituted with 100 µL of the mobile phase and a volume of 5 µL was injected into the UPLC–MS/MS. Eight Wistar male rats weighing 210 ± 20 g (aged about 2 months) were provided by National Organization for Drug Control and Research, Cairo, Egypt. Rats were placed in cages in optimum conditions of humidity (40–60%) and temperature (22–26 °C) with regular 12 h day-night cycle. No diet was available for animals for 10 h prior and 1 h post drug administration. Water was available ad libitum. Rats were administered orally (using the gavage technique) 12.5 mg/kg (the middle dose used in the work of Clemens et al.) fostamatinib as a suspension in 1% sodium carboxymethylcellulose. Under light anesthesia, blood samples (0.3 mL) were collected from orbital sinus, in heparinized tube, at different time points; 0, 0.5, 1.0, 2.0, 3.0, 4.0, 6.0, 8.0, 12.0, 24.0, and 48.0 h after drug administration. Plasma samples were obtained by centrifugation at 3000 g for 3 min and kept frozen at −80 °C until analysis. Non-compartmental analysis with the trapezoidal rule was used for estimation of pharmacokinetic parameters. These parameters were calculated using WinNonlin software (Pharsight Co., Mountain View, CA, USA).

The format of data set [4] is in vitro ADME. The conditions noted are these: rat. As for the experimental part: Short-term stability was evaluated at 22–25 °C for 6 h, which represented the processing time. Autosampler stability at ambient temperature for 24 h, long-term stability (−80 °C for 6 weeks), and three cycles of thaw and freeze (−80 and 25 °C) were evaluated. The actual concentrations of QCs samples (LQC, MQC, and HQC) under the stability test condition were compared against freshly prepared samples. Moreover, stock solution and working solution stability was evaluated at refrigerator temperature (4 °C) for 2 weeks.

On the set-up of data set [5]: method as in PMID 23190017, PMID 20371637. The conditions noted are these: human intestinal microsomes; in vitro and in humans; cited from earlier work.
The test system of data set [6] is lung tissue. The arrangement: method as in PMID 26148346. The conditions noted are these: treated mice; cited from earlier work.
On the set-up of data set [7]: method as in PMID 19107952. The settings on record: administration during pregnancy; cited from earlier work.
Where [8] appears, read: male, Wistar, rat, plasma, po, 12.5 mg/kg.

Each structure is given as a SMILES string. Read-outs that look alike come from different tables or passages of the source.

As to `COc1cc(Nc2ncc(F)c(Nc3ccc4c(n3)NC(=O)C(C)(C)O4)n2)cc(OC)c1OC` [Tamatinib, tamatinib], the “effect in collagen-induced arthritis” value in data set [1] was “progressive improvement in histopathology, clinical scores, and joint radiography”. In data set [2], the “effect in experimental nephrotoxic nephritis” value is “reduced glomerular macrophage infiltration, tissue injury, and proteinuria”. In addition, in data set [3] (setting [8]), the AUC(0-inf) was 6420 ± 1500 ng·h/mL. The compound also registered a Cmax in data set [3] (setting [8]) of 653 ± 70.4 ng/mL. Further, the MRT in data set [3] (setting [8]) was determined as 19.8 ± 2.9 h. Moreover, the Tmax in data set [3] (setting [8]) amounted to 3 h. The compound further gave a half-life in data set [3] (setting [8]) of 18.3 ± 0.9 h. Also, the AUC(0-t) in data set [3] (male, Wistar, rat, plasma, po, 12.5 mg/kg, read-out: AUC0–48) is 5640 ± 1210 ng·h/mL. This compound gave a Clearance in data set [3] (tamatinib in plasma, oral fostamatinib 12.5 mg/kg, rats, mean ± SD) of 0.030 ± 0.001 L/h. Further, the Accuracy is 90.0% in data set [4] (0.3 ng/mL); 89.9% in data set [4] (75 ng/mL); 86.6% in data set [4] (750 ng/mL); 86.7% in data set [4] (6 weeks, 0.3 ng/mL); 88.1% in data set [4] (6 weeks, 75 ng/mL); 85.4% in data set [4] (6 weeks, 750 ng/mL). In addition, the Accuracy in data set [4] (6 h, 0.3 ng/mL) was 86.7%; in data set [4] (6 h, 75 ng/mL) it was 86.2%; in data set [4] (6 h, 750 ng/mL), 85.3%; in data set [4] (24 h, 0.3 ng/mL), 86.7%; in data set [4] (24 h, 75 ng/mL) it was 85.3%; in data set [4] (24 h, 750 ng/mL), 87.2%. Further, the “Measured Concentration” value in data set [4] (0.3 ng/mL) came out at 0.27 ± 0.01 ng/mL; in data set [4] (75 ng/mL), 67.40 ± 2.79 ng/mL; in data set [4] (750 ng/mL), 649.20 ± 69.95 ng/mL; in data set [4] (6 weeks, 0.3 ng/mL) it was 0.26 ± 0.02 ng/mL; in data set [4] (6 weeks, 75 ng/mL) it was 66.10 ± 7.77 ng/mL; in data set [4] (6 weeks, 750 ng/mL) it was 640.60 ± 73.94 ng/mL. For the same compound, the “Measured Concentration” value in data set [4] (6 h, 0.3 ng/mL) is given as 0.26 ± 0.03 ng/mL; in data set [4] (6 h, 75 ng/mL) it was 64.65 ± 3.47 ng/mL; in data set [4] (6 h, 750 ng/mL), 640.10 ± 43.19 ng/mL; in data set [4] (24 h, 0.3 ng/mL), 0.26 ± 0.02 ng/mL; in data set [4] (24 h, 75 ng/mL), 64.00 ± 5.11 ng/mL; in data set [4] (24 h, 750 ng/mL) it was 654.34 ± 97.10 ng/mL.

Take `COc1cc(Nc2ncc(F)c(Nc3ccc4c(n3)N(COP(=O)(O)O)C(=O)C(C)(C)O4)n2)cc(OC)c1OC` [fostamatinib, Fostamatinib sodium]: the transformation to tamatinib result in data set [5] is “rapidly transformed to tamatinib”. For the same compound, the “fibrosis and inflammation in lung tissue” value in data set [6] was “less fibrosis and inflammation in lung tissue”. In addition, in data set [7], the developmental toxicity result was “caused urogenital and cardiovascular abnormalities”.

For orientation: AUC(0-inf) means the area under the concentration-time curve extrapolated to infinity. Lower therefore signals low exposure. As a reminder, the Cmax is the peak of the concentration-time curve. For orientation: MRT means a mean duration of stay, worked out from the concentration-time curve. As usually defined, the Tmax is the time at which the peak concentration occurs. One may read the half-life as the time in which the quantity being followed falls by half. Lower therefore signals rapid decline.

Values taken from PMC8348403 (Molecules, 2021).
